Where a SMILES comes first, the peptide text is derived from it. [ ]: non-standard residue; d: D form. Phe(4-Cl) = N[CH](Cc1ccc(Cl)cc1)C(=O)O; 3Pal = N[CH](Cc1cccnc1)C(=O)O
Target: T1, ATX (Homo sapiens, UniProt Q13822)
T1 construct: conditioned serum-free medium (CCM) from MDA-MB-435 cells as the source of ATX; endogenous in cells; host or cells: MDA-MB-435 cells (about 10x concentrated conditioned serum-free medium)
Assay: ATX inhibition assay (FS-3 substrate)
Type: biochemical
Conditions: for % Response: preliminary screen, FS-3 hydrolysis at one hour, normalized to vehicle control, mean±S.D., same values given at 10 μM in Table 5; for % ATX Acitivity (10 μM): 10 μM compound; for % ATX Acitivity (10 μM) / IC50: FS-3 substrate
Method: ATX inhibition was assayed using the substrate FS-3 (Echelon Biosciences, Inc., Salt Lake City, Utah, USA). The FS-3 assay used ˜10 times concentrated conditioned serum-free medium (CCM) from MDA-MB-435 cells as the source of ATX, while CCM comprised one-third of the total volume. The final volume for FS-3 was comprised of the substrate at varying concentrations and 30 μM charcoal-stripped fatty acid free BSA (Sigma Aldrich) in assay buffer (1 mM each CaCl2 and MgCl2, 5 mM KCl, 140 mM NaCl, 50 mM Tris pH 8.0).
All assays were performed in 96-well plates with data read at 1 minute intervals by a Synergy2 system (BioTek, Winooski, Vt.). The fluorescence produced upon the hydrolysis of FS-3 was monitored using an excitation wavelength of 485 nm and an emission wavelength of 528 nm at 37° C. (Ferguson et al., 2006). […] All readings were normalized to vehicle control after subtraction of fluorescence in the absence of CCM. Data are shown as the mean±S.D. of at least three wells.

[1] = Calculated IC50 data for the 30 active compounds

SMILES | % Response | also measured
Cc1cc(C)c(N=Nc2cc(C)c(N=Nc3c(S(=O)(=O)[O-])cc4cc(Nc5ccccc5)ccc4c3O)cc2C)c(S(=O)(=O)[O-])c1.[Na+].[Na+] [compound 47747] | 73 ± 3.0% | –
CC(=O)NC(Cc1ccc(Cl)cc1)C(=O)NC(Cc1ccc(Cl)cc1)C(=O)NC(Cc1cccnc1)C(=O)NC(CO)C(=O)NC(Cc1ccc(O)cc1)C(=O)NC(CCCN=C(N)N)C(=O)NC(CC(C)C)C(=O)NC(CCCN=C(N)N)C(=O)N1CCCC1C(=O)NC(C)C(=O)O (centres unmarked) [compound 373963] (Ac-[Phe(4-Cl)][Phe(4-Cl)][3Pal]SYRLRPA-OH; configuration not given here) | 96 ± 2.5% | –
CC(C)(C)OC(=O)NC(CC(Cc1ccccc1)C(=O)O)C(=O)NC(CC(Cc1ccccc1)C(=O)O)C(=O)NC(CC(Cc1ccccc1)C(=O)O)C(=O)NCC(=O)Oc1ccc([N+](=O)[O-])cc1 (centres unmarked) [NSC 341348] | – | % ATX Acitivity (10 μM): 43 ± 2.8%; IC50: 2.5 µM
Nc1c(N=Nc2ccc([N+](=O)[O-])cc2)c(S(=O)(=O)O)cc2cc(S(=O)(=O)O)c(N=Nc3ccc(-c4ccc(N=Nc5ccc(O)cc5)cc4)cc3)c(O)c12.[Na+] [compound 47752] | 52 ± 5.4% | –
Nc1cccc(N=Nc2c(S(=O)(=O)[O-])cc3cc(NC(=O)Nc4ccc5c(O)c(N=Nc6cccc(N)c6)c(S(=O)(=O)[O-])cc5c4)ccc3c2O)c1.[Na+].[Na+] [compound 47750] | 68 ± 5.8% | –
Nc1ccc(N=Nc2ccc(-c3ccc(N=Nc4c(S(=O)(=O)[O-])cc5cc(S(=O)(=O)[O-])c(N=Nc6ccc([N+](=O)[O-])cc6)c(N)c5c4O)cc3)cc2)c2cc(S(=O)(=O)[O-])ccc12.[Na+].[Na+].[Na+] [compound 79743] | 39 ± 2.7% | IC50 [1]: 8.33 µM
Cc1ccc(Nc2ccc(Nc3ccc(C)cc3S(=O)(=O)[O-])c3c2C(=O)c2ccccc2C3=O)c(S(=O)(=O)[O-])c1.[Na+].[Na+] [compound 7795] | 99 ± 5.0% | –
COc1ccccc1N=Nc1c(S(=O)(=O)[O-])cc2cc(NC(=O)Nc3ccc4c(O)c(N=Nc5ccc(S(=O)(=O)[O-])cc5C)c(S(=O)(=O)[O-])cc4c3)ccc2c1O.[Na+].[Na+].[Na+] [compound 47764] | 41 ± 4.3% | IC50 [1]: 18.2 µM
Nc1c(N=Nc2ccc([N+](=O)[O-])cc2)c(S(=O)(=O)O)cc2cc(S(=O)(=O)O)c(N=Nc3ccc(-c4ccc(O)cc4)cc3)c(O)c12.[Na+] [compound 65560] | 56 ± 4.9% | –
COc1ccc(/C=N\NC(=O)N/N=C/c2ccc(OC)c(S(=O)(=O)O)c2)cc1S(=O)(=O)O.[Na+] [compound 48775] | 98 ± 5.5% | –
O=C1C(Cl)=C(Nc2ccc(C(=O)Nc3ccc4cc(S(=O)(=O)O)cc(S(=O)(=O)O)c4c3)cc2)C(=O)C(Cl)=C1Nc1ccc(C(=O)Nc2ccc3cc(S(=O)(=O)O)cc(S(=O)(=O)O)c3c2)cc1.[Na+] [compound 12859] | 27 ± 2.8% | IC50 [1]: 0.805 µM
Cc1cc(-c2ccc(N=Nc3c(N)c(S(=O)(=O)O)cc4cc(S(=O)(=O)O)ccc34)c(C)c2)ccc1N=Nc1cc(S(=O)(=O)O)c2ccccc2c1N [compound 7815] | 32 ± 5.5% | IC50 [1]: 13.4 µM
O=C(Nc1cccc(C(=O)Nc2ccc3cc(S(=O)(=O)O)cc(S(=O)(=O)O)c3c2)c1)Nc1cccc(C(=O)Nc2ccc3cc(S(=O)(=O)O)cc(S(=O)(=O)O)c3c2)c1.[Na+] [compound 12856] | 71 ± 5.4% | –
O=C(Nc1ccc(S(=O)(=O)c2ccc(NC(=O)Nc3ccc4cc(S(=O)(=O)O)ccc4c3)cc2)cc1)Nc1ccc2cc(S(=O)(=O)O)ccc2c1.[Na+] [compound 12149] | 57 ± 6.5% | –
O=S(=O)(O)c1cc(O)c2ccc(Nc3ccc4c(O)cc(S(=O)(=O)O)cc4c3)cc2c1 [compound 37203] | 92 ± 9.1% | –
COc1nc(Nc2ccc(/C=C/c3ccc(Nc4nc(OC)nc(N(CCO)CCO)n4)cc3S(=O)(=O)[O-])c(S(=O)(=O)[O-])c2)nc(N(CCO)CCO)n1.[Na+].[Na+] [compound 306423] | 94 ± 3.6% | –
Cc1cc(S(=O)(=O)O)ccc1N=c1ccc2c(-c3ccccc3C(=O)[O-])c3ccc(Nc4ccccc4C)cc3oc-2c1.[Na+] [compound 11246] | 42 ± 6.0% | IC50 [1]: 10.2 µM
O=C(Nc1ccc2c(O)cc(S(=O)(=O)O)cc2c1)Nc1ccc2c(O)cc(S(=O)(=O)O)cc2c1 [compound 45174] | 89 ± 3.2% | –
Nc1ccc(/N=N/c2ccc(-c3ccc(/N=N/c4c(S(=O)(=O)O)cc5cc(S(=O)(=O)O)c(/N=N/c6ccc([N+](=O)[O-])cc6)c(N)c5c4O)cc3)cc2)c2ccc(S(=O)(=O)O)cc12 [NSC 77520] | – | % ATX Acitivity (10 μM): 32 ± 2.7%; IC50: 4.07 µM
O=C(NC(CSSCC(NC(=O)c1ccc([N+](=O)[O-])cc1)C(=O)O)C(=O)O)c1ccc([N+](=O)[O-])cc1 (centres unmarked) [compound 2532] | 95 ± 5.7% | –

SMILES | % Response | also measured
Nc1c(N=Nc2ccc([N+](=O)[O-])cc2)c(S(=O)(=O)O)cc2cc(S(=O)(=O)O)c(N=Nc3ccc(Sc4ccc(N=Nc5ccc(O)cc5)cc4)cc3)c(O)c12.[Na+] [compound 79723] | 83 ± 3.2% | –
Cc1cc(N)ccc1N=Nc1ccc(-c2ccc(N=Nc3c(S(=O)(=O)O)cc4cc(S(=O)(=O)O)c(N=Nc5ccc([N+](=O)[O-])cc5)c(N)c4c3O)cc2)cc1.[Na+] [compound 65851] | 42 ± 3.5% | IC50 [1]: 9.5 µM
Nc1ccc(N=Nc2ccc(-c3ccc(N=Nc4c(S(=O)(=O)[O-])cc5cc(S(=O)(=O)[O-])c(N=Nc6cccc([N+](=O)[O-])c6)c(N)c5c4O)cc3)cc2)c2cc(S(=O)(=O)[O-])ccc12.[Na+].[Na+].[Na+] [compound 79742] | 36 ± 2.5% | IC50 [1]: 7.04 µM
COc1ccc(/C=N/N=C(N)/C(N)=N/N=C/c2ccc(OC)c(S(=O)(=O)O)c2)cc1S(=O)(=O)O.[Na+] [compound 46954] | 92 ± 3.9% | –
CC(=O)Nc1ccc(C=Cc2ccc(NC(=O)Nc3ccc(C=Cc4ccc(NC(C)=O)cc4S(=O)(=O)O)c(S(=O)(=O)O)c3)cc2S(=O)(=O)O)c(S(=O)(=O)O)c1 [compound 34928] | 51 ± 6.5% | –
CC(=O)Nc1ccc(N=Nc2c(S(=O)(=O)O)cc3cc(NC(=O)Nc4ccc5c(O)c(N=Nc6ccccc6)c(S(=O)(=O)O)cc5c4)ccc3c2O)cc1.[Na+] [compound 47762] | 83 ± 5.5% | –
Nc1c(N=Nc2ccc([N+](=O)[O-])cc2)c(S(=O)(=O)O)cc2cc(S(=O)(=O)O)c(N=Nc3ccccc3)c(O)c12 [compound 7820] | 110 ± 5.7% | –
O=C(CC(C(=O)O)S(=O)(=O)O)Nc1ccc(S(=O)(=O)c2ccc(NC(=O)CC(C(=O)O)S(=O)(=O)O)cc2)cc1.[Na+] (centres unmarked) [compound 2460] | 99 ± 3.1% | –
CC1=NN(c2ccc(/C=C/c3ccc(NC(=O)Nc4ccc(/C=C/c5ccc(N6N=C(C)C(N=Nc7ccccc7C(=O)O)C6=O)cc5S(=O)(=O)O)c(S(=O)(=O)O)c4)cc3S(=O)(=O)O)c(S(=O)(=O)O)c2)C(=O)C1N=Nc1ccccc1C(=O)O.[Na+] (centres unmarked) [compound 34937] | 87 ± 3.1% | –
O=C(O)c1ccc2c(c1Nc1ccc(-c3ccc(Nc4c(C(=O)O)ccc5c4C(=O)c4ccccc4C5=O)cc3)cc1)C(=O)c1ccccc1C2=O [compound 7581] | 70 ± 4.8% | –
O=C(Nc1ccc2c(O)cc(S(=O)(=O)[O-])cc2c1)Nc1ccc2c(O)c(N=Nc3ccc4cc(S(=O)(=O)[O-])ccc4c3)c(S(=O)(=O)[O-])cc2c1.[Na+].[Na+].[Na+] [compound 45616] | 64 ± 3.0% | –
O=C(Nc1ccc(C(=O)Nc2cc(S(=O)(=O)O)cc3cccc(S(=O)(=O)O)c23)cc1)Nc1ccc(C(=O)Nc2cc(S(=O)(=O)O)cc3cccc(S(=O)(=O)O)c23)cc1.[Na+] [compound 12188] | 105 ± 8.0% | –
O=C(Nc1ccc(Sc2ccc(N=Nc3c(O)c(S(=O)(=O)O)cc4cc(S(=O)(=O)O)ccc34)cc2)cc1)c1ccc(N=Nc2c(O)c(S(=O)(=O)O)cc3cc(S(=O)(=O)O)ccc23)cc1 [compound 65860] | 66 ± 4.4% | –
Cc1ccccc1N=Nc1c(S(=O)(=O)[O-])cc2cc(NC(=O)Nc3ccc4c(O)c(N=Nc5ccc6cc(S(=O)(=O)[O-])ccc6c5)c(S(=O)(=O)[O-])cc4c3)ccc2c1O.[Na+].[Na+].[Na+] [compound 58057] | 29 ± 3.6% | IC50 [1]: 11.6 µM
CC(C)(C)OC(=O)NC(CC(Cc1ccccc1)C(=O)O)C(=O)NC(CC(Cc1ccccc1)C(=O)O)C(=O)NC(CC(Cc1ccccc1)C(=O)O)C(=O)NCC(=O)Oc1ccc([N+](=O)[O-])cc1 (centres unmarked) [compound 341348] | 43 ± 2.8% | IC50 [1]: 2.5 µM
CC(=O)NS(=O)(=O)c1ccc(NC(=O)c2ccccc2C(=O)O)cc1 [compound 4368] | 99 ± 2.8% | –
Nc1c(N=Nc2ccc([N+](=O)[O-])cc2)c(S(=O)(=O)O)cc2cc(S(=O)(=O)O)c(N=Nc3ccc([N+](=O)[O-])cc3)c(O)c12.[Na+] [compound 65544] | 76 ± 5.1% | –
Nc1c(N=Nc2ccc([N+](=O)[O-])cc2)c(S(=O)(=O)[O-])cc2cc(S(=O)(=O)[O-])c(N=Nc3ccc(-c4ccc(N=Nc5ccc(O)c(C(=O)[O-])c5)cc4)cc3)c(O)c12.[Na+].[Na+].[Na+] [compound 8681] | 55 ± 5.5% | –
O=C(Nc1ccc2c(O)c(N=Nc3ccccc3)c(S(=O)(=O)[O-])cc2c1)Nc1ccc2c(O)c(N=Nc3ccccc3)c(S(=O)(=O)[O-])cc2c1.[Na+].[Na+] [compound 16223] | 77 ± 9.8% | –

Source: patent publication US8343934B2, “Diverse lead compound autotaxin inhibitors” (University of Memphis, priority 2009, dated 2013)
